Experimental data: ChEMBL document CHEMBL6092194, “Development of membrane-targeting chalcone derivatives as antibacterial agents against multidrug-resistant bacteria” (Eur J Med Chem, 2024)
Active and inactive are the calls of the source. No cut-off for these calls is given here.

Assays:
Staphylococcus aureus [1] = experiment: Antibacterial activity against erythromycin susceptible Staphylococcus aureus ATCC25923 by broth microdilution assay; format: functional
Staphylococcus aureus [2] = experiment: Antibacterial activity against penicillin-resistant Staphylococcus aureus ATCC31007 by broth microdilution assay; format: functional
Enterococcus faecalis = experiment: Antibacterial activity against vancomycin susceptible Enterococcus faecalis ATCC29212 by broth microdilution assay; format: functional
[3] = tested on: Staphylococcus epidermidis; experiment: Antibacterial activity against erythromycin-susceptible Staphylococcus epidermidis ATCC12228 by broth microdilution assay; format: functional
Klebsiella pneumoniae = experiment: Antibacterial activity against Klebsiella pneumoniae ATCC10031 by broth microdilution assay; format: functional
Acinetobacter baumannii = experiment: Antibacterial activity against Acinetobacter baumannii ATCC19606 by broth microdilution assay; format: functional
Escherichia coli [4] = experiment: Antibacterial activity against penicillin-susceptible Escherichia coli ATCC25922 by broth microdilution method; format: functional
Escherichia coli [5] = experiment: Bactericidal activity against Escherichia coli ATCC25922 in Mueller Hinton Broth; format: functional
Escherichia coli [6] = experiment: Bactericidal activity against Escherichia coli ATCC25922 in presence of 50% serum; format: functional
Staphylococcus aureus [7] = experiment: Bactericidal activity against Staphylococcus aureus ATCC43300 in presence of 50% blood; format: functional
Escherichia coli [8] = experiment: Bactericidal activity against Escherichia coli ATCC25922 in presence of 50% blood; format: functional
Staphylococcus aureus [9] = experiment: Bactericidal activity against Staphylococcus aureus ATCC43300 assessed as elimination of bacteria at 8 microg/ml measured within 4 hrs by time-kill kinetics assay relative to control; format: functional; settings: dose 8 µg/ml
Escherichia coli [10] = experiment: Bactericidal activity against Escherichia coli ATCC25922 assessed as bacterial killing at 8 times of MIC measured after 8 hrs by time-kill kinetics assay relative to control; format: functional
Staphylococcus aureus [11] = experiment: Antibiofilm activity against Staphylococcus aureus ATCC43300 assessed as inhibition of biofilm formation at 1 microg/ml relative to control; format: functional
Staphylococcus aureus [12] = experiment: Antibiofilm activity against Staphylococcus aureus ATCC43300 assessed as inhibition of biofilm formation at 8 microg/ml relative to control; format: functional
Staphylococcus aureus [13] = experiment: Disruption of preformed biofilm in Staphylococcus aureus ATCC43300 assessed as eradication of biofilm at 32 microg/ml relative to control; format: functional; settings: dose 32 µg/ml
Staphylococcus aureus [14] = experiment: Induction of morphological changes in Staphylococcus aureus ATCC43300 assessed as disruption of cell membrane by scanning electron microscopic analysis; format: functional, organism-based
Escherichia coli [15] = experiment: Induction of morphological changes in Escherichia coli ATCC25922 assessed as collapse of cell membrane by scanning electron microscopic analysis; format: functional, organism-based
Cell membrane [16] = experiment: Disruption of cell membrane in Escherichia coli ATCC25922 assessed as appearance of blue fluorescence by DAPI staining based fluorescence microscopic analysis; format: subcellular
Cell membrane [17] = experiment: Induction of cytoplasmic membrane depolarization in Staphylococcus aureus ATCC43300 assessed as fold increase in fluorescence intensity at 4 microg/ml measured after 24 mins by DiSC3(5) dye-based fluorescence assay relative to negative control; settings: dose 4.0 µg/ml
Cell membrane [18] = experiment: Induction of cytoplasmic membrane depolarization in Staphylococcus aureus ATCC43300 assessed as increase in fluorescence intensity at 8 microg/ml measured after 24 mins by DiSC3(5) dye-based fluorescence assay; settings: dose 8.0 µg/ml
Cell membrane [19] = experiment: Induction of inner membrane permeabilization in Staphylococcus aureus ATCC43300 assessed as increase in fluorescence intensity incubated for 20 mins by PI uptake assay; format: subcellular; settings: dose 0.5-8 µg/ml
Cell membrane [20] = experiment: Induction of outer membrane permeabilization in Escherichia coli ATCC25922 assessed as fold increase in fluorescence intensity at 8 microg/ml incubated for 20 mins by NPN uptake assay; format: subcellular; settings: dose 8.0 µg/ml
Cell membrane [21] = experiment: Disruption of cell membrane in Staphylococcus aureus ATCC43300 assessed as increase in intracellular ROS level by measuring fold increase in fluorescence intensity at 8 microg/ml by DCFH-DA staining based fluorescence analysis relative to blank control group; settings: dose 8.0 µg/ml
Cell membrane [22] = experiment: Disruption of cell membrane in Escherichia coli ATCC25922 assessed as increase in DNA leakage; settings: dose 1-8 µg/ml
Cell membrane [23] = experiment: Disruption of cell membrane in Staphylococcus aureus ATCC43300 assessed as increase in protein leakage; format: subcellular; settings: dose 1-8 µg/ml
Cell membrane [24] = experiment: Disruption of cell membrane in Escherichia coli ATCC25922 assessed as increase in protein leakage; format: subcellular; settings: dose 1-8 µg/ml
Cell membrane [25] = experiment: Disruption of cell membrane in Staphylococcus aureus ATCC43300 assessed as fold increase in protein leakage at 8 microg/ml relative to control; format: subcellular; settings: dose 8.0 µg/ml
[26] = Cytotoxicity against human L02 cells assessed as cell survival at 16 microg/ml by CCK8 assay relative to control; format: toxicity, cell-based; settings: at 16 µg/mL, read-out: Survival
Staphylococcus aureus [27] = experiment: Antibacterial activity against Staphylococcus aureus ATCC43300 infected in sepsis mouse model assessed as log reduction in bacterial load in liver at 5 mg/kg pre-infected with bacteria for 1 hrs followed by compound administration at 12 hrs interval for 2 days relative to control; format: functional; settings: time 2 day
Staphylococcus aureus [28] = experiment: Antibacterial activity against Staphylococcus aureus ATCC43300 infected in sepsis mouse model assessed as log reduction in bacterial load in spleen at 5 mg/kg pre-infected with bacteria for 1 hrs followed by compound administration at 12 hrs interval for 2 days relative to control; format: functional; settings: time 2 day
Staphylococcus aureus [29] = experiment: Antibacterial activity against Staphylococcus aureus ATCC43300 infected in sepsis mouse model assessed as log reduction in bacterial load in blood at 5 mg/kg pre-infected with bacteria for 1 hrs followed by compound administration at 12 hrs interval for 2 days relative to control; format: functional; settings: time 2 day
Staphylococcus aureus [30] = experiment: Antibacterial activity against Staphylococcus aureus ATCC43300 infected in sepsis mouse model assessed as reduction in liver damage at 5 to 10 mg/kg pre-infected with bacteria for 1 hrs followed by compound administration at 12 hrs interval for 2 days by H and E staining based analysis; format: functional, organism-based; settings: dose 5-10 mg/kg, time 2.0 day
Staphylococcus aureus [31] = experiment: Antibacterial activity against Staphylococcus aureus ATCC43300 infected in sepsis mouse model assessed as reduction in kidney inflammation at 5 to 10 mg/kg pre-infected with bacteria for 1 hrs followed by compound administration at 12 hrs interval for 2 days by H and E staining based analysis; format: functional, organism-based; settings: dose 5-10 mg/kg, time 2.0 day
Escherichia coli [32] = experiment: Antibacterial activity against Escherichia coli ATCC25922 infected in sepsis mouse model assessed as reduction in liver damage at 5 to 10 mg/kg pre-infected with bacteria for 1 hrs followed by compound administration at 12 hrs interval for 2 days by H and E staining based analysis; format: functional, organism-based; settings: dose 5-10 mg/kg, time 2.0 day
Escherichia coli [33] = experiment: Antibacterial activity against Escherichia coli ATCC25922 infected in sepsis mouse model assessed as reduction in spleen inflammation at 5 to 10 mg/kg pre-infected with bacteria for 1 hrs followed by compound administration at 12 hrs interval for 2 days by H and E staining based analysis; format: functional, organism-based; settings: dose 5-10 mg/kg, time 2.0 day
Escherichia coli [34] = experiment: Antibacterial activity against Escherichia coli ATCC25922 infected in sepsis mouse model assessed as reduction in inflammatory cell infiltration in liver at 10 mg/kg pre-infected with bacteria for 1 hrs followed by compound administration at 12 hrs interval for 2 days by H and E staining based analysis; format: functional, organism-based; settings: time 2.0 day
Staphylococcus aureus [35] = experiment: Selectivity ratio of MBC for Staphylococcus aureus ATCC43300 in presence of 50% blood to MBC for Staphylococcus aureus ATCC43300 in Mueller Hinton Broth; format: functional
Escherichia coli [36] = experiment: Ratio of MBC for Escherichia coli ATCC25922 in presence of 50% serum to MBC for Escherichia coli ATCC25922 in Mueller Hinton Broth; format: functional

With CCCCCCOc1cc[n+](CCCOc2ccc(/C=C/C(=O)c3ccc(OCCC[n+]4ccc(OCCCCCC)cc4)cc3)cc2)cc1.[Br-].[Br-] the MIC (Staphylococcus aureus [1]) was 1 µg/mL, the MIC (Staphylococcus aureus [2]) was 1 µg/mL and the MIC (Enterococcus faecalis) was 0.5 µg/mL. The MIC [3] was 0.5 µg/mL, the MIC (Klebsiella pneumoniae) was 1 µg/mL and the MIC (Acinetobacter baumannii) was 16 µg/mL. The MIC (Escherichia coli [4]) was 1 µg/mL, the MBC (Escherichia coli [5]) was 8 µg/mL and the MBC (Escherichia coli [6]) was 32 µg/mL. The MIC (Staphylococcus aureus [7]) was 16 µg/mL, the MIC (Escherichia coli [8]) was 32 µg/mL and the Activity (Staphylococcus aureus [9]) was “>=99.9%”. The Activity (Escherichia coli [10]) was 100%, the inhibition at 1 µg/mL (Staphylococcus aureus [11]) was 6.91% and the inhibition at 8 µg/mL (Staphylococcus aureus [12]) was 90.8%. For the same molecule, the Activity (Staphylococcus aureus [13]) was greater than 35.94%, the Activity (Staphylococcus aureus [14]) was “Active” and the Activity (Escherichia coli [15]) was “Active”. The Activity (Cell membrane [16]) was “Active”, the fold change (FC) (Cell membrane [17]) was 5.8 and the Activity (Cell membrane [18]) was “Active; Fluorescence Intensity Surpassed The Melittin Group”. The Activity (Cell membrane [19]) was “Dose-dependent-effect”, the fold change (FC) (Cell membrane [20]) was 2.5 and the fold change (FC) (Cell membrane [21]) was 1.7. The Activity (Cell membrane [22]) was “Dose-dependent-effect”, the Activity (Cell membrane [23]) was “Dose-dependent-effect” and the Activity (Cell membrane [24]) was “Dose-dependent-effect”. For the same molecule, the fold change (FC) (Cell membrane [25]) was 7.5, the viability at 16 microg/ml [26] was greater than 83% and the “log(activity)” value (Staphylococcus aureus [27]) was 0.91. For the same molecule, the “log(activity)” value (Staphylococcus aureus [28]) was 1.02, the “log(activity)” value (Staphylococcus aureus [29]) was 0.8 and the Activity (Staphylococcus aureus [30]) was “Active”. The Activity (Staphylococcus aureus [31]) was “Active”, the Activity (Escherichia coli [32]) was “Active” and the Activity (Escherichia coli [33]) was “Active”. For the same molecule, the Activity (Escherichia coli [34]) was “inactive”, the Ratio (Staphylococcus aureus [35]) was less than 2 and the Ratio (Escherichia coli [36]) was less than 2.
